From ChEMBL document CHEMBL3044858, “Design, synthesis, and biological evaluation of new 4-thiazolidinone derivatives substituted with benzimidazole ring as potential chemotherapeutic agents” (Med Chem Res, 2013)
Activity calls are given as the source filed them. The rule behind the calls is not given here.

What was measured:
[1] = Cytotoxicity against lymphocytes in Homo sapiens (human) whole blood assessed as inhibition of cell viability after 24 to 96 hr by neutral red uptake assay; format: tissue-based; conditions: Lymphocyte
Hepatitis C virus [2] = experiment: Antiviral activity against Hepatitis C virus isolated from PBMC of infected patient assessed as disappearance of (+) and or (-) strands of viral RNA at 0.647 uM after 96 hr by qualitative RT-PCR analysis; format: functional, organism-based; conditions: Hepacivirus hominis
Hepatitis C virus [3] = experiment: Antiviral activity against Hepatitis C virus infected HepG2 cells assessed as disappearance of (+) and or (-) strands of viral RNA at 0.647 uM after 96 hr by qualitative RT-PCR analysis; format: functional, organism-based; conditions: Hepacivirus hominis
Blood = experiment: Toxicity in Homo sapiens (human) blood assessed as hemolysis
Hepatitis C virus [4] = experiment: Antiviral activity against Hepatitis C virus infected in HepG2 cells assessed as disappearance of (+) and or (-) strands of viral RNA at 0.312 uM after 96 hr by qualitative RT-PCR analysis; format: functional, organism-based; conditions: Hepacivirus hominis
HepG2 [5] = experiment: Anticancer activity against Homo sapiens (human) HepG2 cells assessed as cell growth at 100 uM after 48 hr by SRB assay; format: functional, cell-based; conditions: HepG2, 48 h; for growth at 100 µM: read-out: Activity
MCF7 [6] = experiment: Anticancer activity against Homo sapiens (human) MCF7 cells assessed as cell growth at 100 uM after 48 hr by SRB assay; format: functional, cell-based; conditions: MCF7, 48 h; for growth at 100 µM: read-out: Activity
HCT-116 [7] = experiment: Anticancer activity against Homo sapiens (human) HCT116 cells assessed as cell growth at 100 uM after 48 hr by SRB assay; format: functional, cell-based; conditions: HCT-116, 48 h; for growth at 100 µM: read-out: Activity
HepG2 [8] = experiment: Anticancer activity against Homo sapiens (human) HepG2 cells assessed as growth inhibition after 48 hr by SRB assay; format: functional, cell-based; conditions: HepG2, 48 h
Hepatitis C virus [9] = experiment: Antiviral activity against Hepatitis C virus isolated from PBMC of infected patient assessed as disappearance of (+) and or (-) strands of viral RNA at 0.312 uM after 96 hr by qualitative RT-PCR analysis; format: functional, organism-based; conditions: Hepacivirus hominis
Hepatitis C virus [10] = experiment: Antiviral activity against Hepatitis C virus infected HepG2 cells assessed as disappearance of (+) and or (-) strands of viral RNA at 0.295 uM after 96 hr by qualitative RT-PCR analysis; format: functional, organism-based; conditions: Hepacivirus hominis
Hepatitis C virus [11] = experiment: Antiviral activity against Hepatitis C virus isolated from PBMC of infected patient assessed as disappearance of (+) and or (-) strands of viral RNA at 0.295 uM after 96 hr by qualitative RT-PCR analysis; format: functional, organism-based; conditions: Hepacivirus hominis
MCF7 [12] = experiment: Anticancer activity against Homo sapiens (human) MCF7 cells assessed as growth inhibition after 48 hr by SRB assay; format: functional, cell-based; conditions: MCF7, 48 h
Hepatitis C virus [13] = experiment: Antiviral activity against Hepatitis C virus isolated from PBMC of infected patient assessed as disappearance of (+) and or (-) strands of viral RNA at 0.078 uM after 96 hr by qualitative RT-PCR analysis; format: functional, organism-based; conditions: Hepacivirus hominis
Hepatitis C virus [14] = experiment: Antiviral activity against Hepatitis C virus infected HepG2 cells assessed as disappearance of (+) and or (-) strands of viral RNA at 0.078 uM after 96 hr by qualitative RT-PCR analysis; format: functional, organism-based; conditions: Hepacivirus hominis
[15] = target: T1, Arylamine N-acetyltransferase 1 (Homo sapiens, UniProt P18440); experiment: Inhibition of Homo sapiens (human) arylamine N-acetyltransferase 1
T1 sequence (P18440 whole entry): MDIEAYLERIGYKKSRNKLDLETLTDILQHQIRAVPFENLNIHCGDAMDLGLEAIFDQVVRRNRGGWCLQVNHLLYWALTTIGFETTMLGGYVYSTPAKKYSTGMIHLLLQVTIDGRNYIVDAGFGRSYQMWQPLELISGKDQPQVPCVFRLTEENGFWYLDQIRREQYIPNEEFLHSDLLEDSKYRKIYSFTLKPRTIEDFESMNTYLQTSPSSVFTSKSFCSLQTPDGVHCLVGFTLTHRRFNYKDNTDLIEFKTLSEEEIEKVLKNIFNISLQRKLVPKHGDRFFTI

Hepatitis C virus [16] = experiment: Antiviral activity against Hepatitis C virus isolated from PBMC of infected patient assessed as disappearance of (+) and or (-) strands of viral RNA at 0.077 uM after 96 hr by qualitative RT-PCR analysis; format: functional, organism-based; conditions: Hepacivirus hominis
Hepatitis C virus [17] = experiment: Antiviral activity against Hepatitis C virus infected HepG2 cells assessed as disappearance of (+) and or (-) strands of viral RNA at 0.077 uM after 96 hr by qualitative RT-PCR analysis; format: functional, organism-based; conditions: Hepacivirus hominis
Hepatitis C virus [18] = experiment: Antiviral activity against Hepatitis C virus infected HepG2 cells assessed as disappearance of (+) and or (-) strands of viral RNA at 0.611 uM after 96 hr by qualitative RT-PCR analysis; format: functional, organism-based; conditions: Hepacivirus hominis
Hepatitis C virus [19] = experiment: Antiviral activity against Hepatitis C virus isolated from PBMC of infected patient assessed as disappearance of (+) and or (-) strands of viral RNA at 0.611 uM after 96 hr by qualitative RT-PCR analysis; format: functional, organism-based; conditions: Hepacivirus hominis
Hepatitis C virus [20] = experiment: Antiviral activity against Hepatitis C virus infected HepG2 cells assessed as disappearance of (+) and or (-) strands of viral RNA at 0.30 uM after 96 hr by qualitative RT-PCR analysis; format: functional, organism-based; conditions: Hepacivirus hominis
Hepatitis C virus [21] = experiment: Antiviral activity against Hepatitis C virus isolated from PBMC of infected patient assessed as disappearance of (+) and or (-) strands of viral RNA at 0.30 uM after 96 hr by qualitative RT-PCR analysis; format: functional, organism-based; conditions: Hepacivirus hominis
Hepatitis C virus [22] = experiment: Antiviral activity against Hepatitis C virus isolated from PBMC of infected patient assessed as disappearance of (+) and or (-) strands of viral RNA at 0.394 uM after 96 hr by qualitative RT-PCR analysis; format: functional, organism-based; conditions: Hepacivirus hominis
Hepatitis C virus [23] = experiment: Antiviral activity against Hepatitis C virus infected in HepG2 cells assessed as disappearance of (+) and or (-) strands of viral RNA at 0.394 uM after 96 hr by qualitative RT-PCR analysis; format: functional, organism-based; conditions: Hepacivirus hominis
Hepatitis C virus [24] = experiment: Antiviral activity against Hepatitis C virus isolated from PBMC of infected patient assessed as disappearance of (+) and or (-) strands of viral RNA at 1.116 uM after 96 hr by qualitative RT-PCR analysis; format: functional, organism-based; conditions: Hepacivirus hominis
Hepatitis C virus [25] = experiment: Antiviral activity against Hepatitis C virus infected HepG2 cells assessed as disappearance of (+) and or (-) strands of viral RNA at 1.116 uM after 96 hr by qualitative RT-PCR analysis; format: functional, organism-based; conditions: Hepacivirus hominis
Hepatitis C virus [26] = experiment: Antiviral activity against Hepatitis C virus isolated from PBMC of infected patient assessed as disappearance of (+) and or (-) strands of viral RNA at 0.108 uM after 96 hr by qualitative RT-PCR analysis; format: functional, organism-based; conditions: Hepacivirus hominis
Hepatitis C virus [27] = experiment: Antiviral activity against Hepatitis C virus infected HepG2 cells assessed as disappearance of (+) and or (-) strands of viral RNA at 0.108 uM after 96 hr by qualitative RT-PCR analysis; format: functional, organism-based; conditions: Hepacivirus hominis
HCT-116 [28] = experiment: Anticancer activity against Homo sapiens (human) HCT116 cells assessed as growth inhibition after 48 hr by SRB assay; format: functional, cell-based; conditions: HCT-116, 48 h

SMILES: O=C1/C(=C\c2ccc(Cl)cc2)S/C(=N\c2ccccc2)N1Cc1nc2ccccc2[nH]1
- IC50 [1]: 32.4 µM
- Activity (Hepatitis C virus [2]): inactive
- Activity (Hepatitis C virus [3]): inactive
- Activity (Blood): Non-toxic

SMILES: O=C1Nc2ccccc2/C1=C1/S/C(=N\c2ccccc2)N(Cc2nc3ccccc3[nH]2)C1=O
- IC50 [1]: 15.6 µM
- Activity (Hepatitis C virus [4]): inactive
- IC50 (HepG2 [5]): 6.8 µM
- IC50 (MCF7 [6]): 7.07 µM
- IC50 (HCT-116 [7]): 16.2 µM
- IC50 (HepG2 [8]): 5.91 µM
- Activity (Blood): Non-toxic
- Activity (Hepatitis C virus [9]): inactive

SMILES: CN(C)c1ccc(/C=C2\SC(=S)N(Cc3nc4ccccc4[nH]3)C2=O)cc1
- IC50 [1]: 14.8 µM
- Activity (Hepatitis C virus [10]): inactive
- Activity (Blood): Non-toxic
- Activity (Hepatitis C virus [11]): inactive

SMILES: O=C1/C(=C/c2ccccc2)SC(=S)N1Cc1nc2ccccc2[nH]1
- IC50 (MCF7 [12]): 35.1 µM

SMILES: O=C1/C(=C/C=C/c2ccccc2)SC(=S)N1Cc1nc2ccccc2[nH]1
- growth at 100 µM (HepG2 [5]): 14.2%
- IC50 (MCF7 [12]): 37.4 µM
- growth at 100 µM (MCF7 [6]): -3.93%
- growth at 100 µM (HCT-116 [7]): 21.2%

SMILES: O=C1/C(=C/c2ccc([N+](=O)[O-])cc2)SC(=S)N1Cc1nc2ccccc2[nH]1
- IC50 [1]: 39.5 µM
- Activity (Hepatitis C virus [13]): inactive
- IC50 (MCF7 [12]): 39.4 µM
- Activity (Hepatitis C virus [14]): inactive
- Activity (Blood): Non-toxic

SMILES: O=C1NC(=O)/C(=C/c2ccccc2O)S1
- IC50 [15]: 1.1 µM

SMILES: O=C1/C(=C\c2ccc([N+](=O)[O-])cc2)S/C(=N\c2ccccc2)N1Cc1nc2ccccc2[nH]1
- growth at 100 µM (HepG2 [5]): 24%
- growth at 100 µM (MCF7 [6]): -0.79%
- growth at 100 µM (HCT-116 [7]): 18%

SMILES: O=C1/C(=C/c2ccccc2Cl)SC(=S)N1Cc1nc2ccccc2[nH]1
- growth at 100 µM (HepG2 [5]): 9.07%
- IC50 (MCF7 [12]): 39.6 µM
- growth at 100 µM (MCF7 [6]): -4.32%
- growth at 100 µM (HCT-116 [7]): 27.6%

SMILES: COc1ccc(/C=C2\SC(=S)N(Cc3nc4ccccc4[nH]3)C2=O)c(OC)c1
- growth at 100 µM (HepG2 [5]): 17.8%
- growth at 100 µM (MCF7 [6]): 0.34%
- growth at 100 µM (HCT-116 [7]): 19.2%

SMILES: COc1ccc(OC)c(/C=C2\SC(=S)N(Cc3nc4ccccc4[nH]3)C2=O)c1
- IC50 [1]: 39 µM
- growth at 100 µM (HepG2 [5]): 18.6%
- IC50 (MCF7 [12]): 27.7 µM
- growth at 100 µM (MCF7 [6]): -2.27%
- growth at 100 µM (HCT-116 [7]): 20.8%
- Activity (Hepatitis C virus [16]): inactive
- Activity (Blood): Non-toxic
- Activity (Hepatitis C virus [17]): inactive

SMILES: O=C1/C(=N\Nc2ccc(S(=O)(=O)Nc3ncccn3)cc2)SC(=S)N1Cc1nc2ccccc2[nH]1
- IC50 [1]: 30.6 µM
- Activity (Blood): Non-toxic
- Activity (Hepatitis C virus [18]): inactive
- Activity (Hepatitis C virus [19]): inactive

SMILES: O=C1/C(=C\c2ccccc2Cl)S/C(=N\c2ccccc2)N1Cc1nc2ccccc2[nH]1
- growth at 100 µM (HepG2 [5]): 18.9%
- IC50 (MCF7 [12]): 34.8 µM
- growth at 100 µM (MCF7 [6]): -1.74%
- growth at 100 µM (HCT-116 [7]): 13.8%

SMILES: CC(=O)NS(=O)(=O)c1ccc(N/N=C2/SC(=S)N(Cc3nc4ccccc4[nH]3)C2=O)cc1
- IC50 [1]: 15.3 µM
- Activity (Hepatitis C virus [20]): inactive
- Activity (Blood): Non-toxic
- Activity (Hepatitis C virus [21]): inactive

SMILES: Cc1ccc(/N=C2\S/C(=C\c3ccc(Cl)cc3)C(=O)N2Cc2nc3ccccc3[nH]2)cc1
- IC50 [1]: 19.7 µM
- Activity (Hepatitis C virus [22]): inactive
- Activity (Blood): Non-toxic
- Activity (Hepatitis C virus [23]): inactive

SMILES: COc1ccc(/C=C2/S/C(=N\c3ccccc3)N(Cc3nc4ccccc4[nH]3)C2=O)c(OC)c1
- growth at 100 µM (HepG2 [5]): 18.4%
- growth at 100 µM (MCF7 [6]): -1.19%
- growth at 100 µM (HCT-116 [7]): 15.5%

SMILES: O=C1Nc2ccccc2/C1=C1/SC(=S)N(Cc2nc3ccccc3[nH]2)C1=O
- IC50 [1]: 55.8 µM
- IC50 (MCF7 [12]): 35.4 µM
- Activity (Hepatitis C virus [24]): inactive
- Activity (Blood): Non-toxic
- Activity (Hepatitis C virus [25]): inactive

SMILES: COc1ccc(/C=C2\SC(=S)N(Cc3nc4ccccc4[nH]3)C2=O)cc1
- IC50 [1]: 54.3 µM
- growth at 100 µM (HepG2 [5]): 11.8%
- IC50 (MCF7 [12]): 46.7 µM
- growth at 100 µM (MCF7 [6]): -5.75%
- growth at 100 µM (HCT-116 [7]): 16.2%
- Activity (Hepatitis C virus [26]): inactive
- Activity (Blood): Non-toxic
- Activity (Hepatitis C virus [27]): inactive

SMILES: O=C1/C(=C\c2ccccc2)S/C(=N\c2ccccc2)N1Cc1nc2ccccc2[nH]1
- growth at 100 µM (HepG2 [5]): 24.4%
- IC50 (HCT-116 [28]): 7.3 µM
- growth at 100 µM (MCF7 [6]): -0.69%
- growth at 100 µM (HCT-116 [7]): 7%
